Assay results published in patent US20080280877A1, “Azetidines” (Pfizer Inc, priority 2007, published 2008).

What follows are molecules tested against T1, recombinant human EP-2 receptor (Homo sapiens, UniProt P43116) (assay: in vitro antagonist potency against recombinant human EP-2 receptor in CHO cells (cAMP, Protocol 1)). Conditions: functional Ki by Cheng-Prusoff from IC50; CHO cells stimulated with PGE2 (5 nM); cAMP readout; read-out: EP2 Ki.
T1 construct: cell line stably transfected with full length cDNA encoding human Prostaglandin E2 was established; expressed in transfected cells; host or cells: CHO (Chinese hamster ovary) cells, stably transfected
Assay type: cell-based
Excerpt: 1.0 Measurement of in vitro Antagonist Potency (IC50) of Compounds Against Recombinant Human Prostaglandin E2 Receptor in CHO Cells
The prostaglandin E2 (EP-2) receptor is Gs coupled and agonism of the receptor by PGE2 results in activation of intracellular adenylate cyclase enzymes that synthesise the second messenger signalling molecule, adenosine 3′,5′-cyclic monophosphate (cAMP). […] Decreases in cAMP levels following treatment of stimulated recombinant EP-2 cells with potential antagonist compounds were measured and potency (IC50) calculated as follows. A Chinese hamster ovary (CHO) cell line stably transfected with full length cDNA encoding human Prostaglandin E2 was established using standard molecular biology methods. Test compounds were dissolved in dimethyl sulphoxide (DMSO) at 4 mM. 11 point half log unit increment dilution series of test compound were prepared in DMSO then diluted 1 in 40 in a buffer comprised of phosphate buffered saline (PBS) and 0.05% pluronic F-127 surfactant. Freshly cultured cells at 80-90% confluence were harvested and re-suspended in 90% growth media/10% DMSO. The cells were frozen using a planar freezer and stored in frozen aliquots in cryovials in liquid nitrogen until the day of the experiment. A vial of cells was defrosted in a 37° C. water bath for 2 min, then transferred to 10 ml of Dulbecco's Modified Eagle's Medium (DMEM). The cells were then centrifuged for 5 min at 1000 g and the pellet re-suspended at 1,000,000 cells/ml in DMEM. 5,000 cells (5 ul) were added to 5 ul of the compound dilution series in a 384 well assay plate and pre-incubated for 30 min at 37° C. 5 ul of agonist (15 nM PGE2 in PBS to give 5 nM FAC) was added and plates further incubated for 90 min at 37° C. The relative cAMP concentration in each well was then measured using a ? -galactosidase enzyme fragment complementation method purchased in kit form as the Discoverx cAMP II kit from GE Healthcare, UK. […] Sigmoidal curves were fitted to plots of log10 inhibitor concentration vs. percent effect. IC50 estimates were determined as the concentration of test compound giving an effect half way between the bottom and top asymptotes of the sigmoidal dose response curve. Each experiment included an IC50 determination for the literature compound as a standard to track assay consistency and allow fair comparison between values obtained in different experiments. The EC50 of PGE2 is used in combination with the ligand concentration in the assay to determine Ki values for antagonist dose responses using the Cheng-Prusoff equation. Consequently an agonist dose response curve is carried out for each experiment using the same incubation as the antagonist plate.

T1 sequence (P43116 whole entry): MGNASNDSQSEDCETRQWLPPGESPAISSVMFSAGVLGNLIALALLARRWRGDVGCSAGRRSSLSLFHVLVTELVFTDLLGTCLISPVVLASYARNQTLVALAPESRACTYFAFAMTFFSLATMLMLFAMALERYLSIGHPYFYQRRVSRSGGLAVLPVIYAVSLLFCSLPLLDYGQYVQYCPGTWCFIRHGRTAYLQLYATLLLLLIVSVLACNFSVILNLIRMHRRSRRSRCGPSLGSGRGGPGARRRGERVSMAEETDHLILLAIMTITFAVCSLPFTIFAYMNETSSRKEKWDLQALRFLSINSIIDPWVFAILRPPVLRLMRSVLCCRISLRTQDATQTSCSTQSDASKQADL

SMILES	Ki [nM]
O=C(c1ccc(F)cc1)N1CC(COc2ccc(-c3ccccn3)cc2)(C(=O)O)C1 [Example 22]	53.9
Cc1ccc2cc(OCC3(C(=O)O)CN(C(=O)c4ccc(Cl)cc4)C3)ccc2n1 [Example 23]	101
Cc1cc(C)c2cc(OCC3(C(=O)O)CN(C(=O)c4ccc(F)cc4)C3)ccc2n1 [Example 24]	103
Cc1ccc2cc(OCC3(C(=O)O)CN(C(=O)c4ccc(F)cc4)C3)ccc2n1 [Example 25]	122
Cc1ccc2cc(OCC3(C(=O)O)CN(C(=O)c4cccc(Cl)c4)C3)ccc2n1 [Example 26]	125
O=C(c1ccc(F)cc1)N1CC(COc2ccc(-c3ccccn3)nc2)(C(=O)O)C1 [Example 27]	146
O=C(c1ccccc1)N1CC(COc2ccc3ccccc3c2)(C(=O)O)C1 [Example 28]	175
COc1ccc2ccc(OCC3(C(=O)O)CN(C(=O)c4ccc(F)cc4)C3)cc2c1 [Example 29]	196
Cc1nc2ccc(OCC3(C(=O)O)CN(C(=O)c4ccc(F)cc4)C3)cc2s1 [Example 30]	206
COc1cccc(C(=O)N2CC(COc3ccc4nc(C)ccc4c3)(C(=O)O)C2)c1 [Example 31]	233
Cc1ccc2cc(OCC3(C(=O)O)CN(C(=O)c4ccccc4)C3)ccc2n1 [Example 32]	271
O=C(c1ccc(F)cc1)N1CC(COc2cnc3ccccc3c2)(C(=O)O)C1 [Example 33]	304
CCOc1ccc(C(=O)N2CC(COc3ccc4nc(C)ccc4c3)(C(=O)O)C2)cc1 [Example 34]	338
O=C(c1ccc(Cl)cc1)N1CC(COc2cccc(-c3ccccc3)c2)(C(=O)O)C1 [Example 35]	525
O=C(c1ccccc1)N1CC(COc2cccc(-c3ccccc3)c2)(C(=O)O)C1 [Example 36]	705
O=C(c1ccc(F)cc1)N1CC(COc2cccc(-c3ccccc3)c2)(C(=O)O)C1 [Example 37]	752
O=C(c1ccccc1)N1CC(COc2cnc(-c3ccccc3)cn2)(C(=O)O)C1 [Example 45, 1-Benzoyl-3-{[(5-phenylpyrazin-2-yl)oxy]methyl}azetidine-3-carboxylic acid]	56.7
COc1ccc(-c2cnc(OCC3(C(=O)O)CN(C(=O)c4ccccc4)C3)nc2)cc1 [Example 46]	37.2
O=C(c1ccc(Cl)cc1)N1CC(COc2ccc(-c3ccccc3)nn2)(C(=O)O)C1 [Example 47]	69.3
COc1ccc2nc(OCC3(C(=O)O)CN(C(=O)c4ccccc4)C3)ccc2c1 [Example 48]	79.7
O=C(c1ccccc1)N1CC(COc2ccc(-c3ccccc3)cn2)(C(=O)O)C1 [Example 49]	114
COc1ccc2cc(OCC3(C(=O)NS(C)(=O)=O)CN(C(=O)c4ccc(F)cc4)C3)ccc2c1 [Example 50, 1-(4-Fluorobenzoyl)-3-{[(6-methoxy-2-naphthyl)oxy]methyl}-N-(methylsulfonyl)azetidine-3-carboxamide]	776
CCOC(=O)C1(COc2ccc3cc(OC)ccc3c2)CN(C(=O)c2ccc(F)cc2)C1 [Example 51, Ethyl 1-(4-fluorobenzoyl)-3-{[(6-methoxy-2-naphthyl)oxy]methyl}azetidine-3-carboxylate]	333
COc1ccc2cc(OCC3(C#N)CN(C(=O)c4ccc(F)cc4)C3)ccc2c1 [Example 52, 1-(4-Fluorobenzoyl)-3-{[(6-methoxy-2-naphthyl)oxy]methyl}azetidine-3-carbonitrile]	182
O=C(c1ccc(F)cc1)N1CC(COc2ccc(Br)cc2)(C(=O)O)C1 [Example 53, 3-[(4-Bromophenoxy)methyl]-1-(4-fluorobenzoyl)azetidine-3-carboxylic acid]	615

Molecules with a lower Ki, results first:

Ki [nM]	SMILES
31.4	CCCOc1ccc(OCC2(C(=O)O)CN(C(=O)c3ccc(Cl)cc3)C2)cc1 [Example 38]
27.7	O=C(c1ccccc1)N1CC(COc2ccc(-c3ccccc3)cc2)(C(=O)O)C1 [Example 21]
24.4	COc1ccc2cc(OCC3(C(=O)O)CN(C(=O)c4ccccc4)C3)ccc2c1 [Example 20]
22.5	O=C(c1ccc(F)cc1)N1CC(COc2ccc(-c3ccccc3Cl)cc2)(C(=O)O)C1 [Example 39, 3-{[(2′-Chlorobiphenyl-4-yl)oxy]methyl}-1-(4-fluorobenzoyl)azetidine-3-carboxylic acid]
19.7	CCOc1ccccc1C(=O)N1CC(COc2ccc3cc(OC)ccc3c2)(C(=O)O)C1 [Example 18]
19.5	O=C(c1ccc(Cl)cc1)N1CC(COc2ccc(-c3ccccc3)cc2)(C(=O)O)C1 [Example 17]
10.9	O=C(C1CCC(F)(F)CC1)N1CC(COc2ccc(-c3ccc(Cl)cc3)cc2)(C(=O)O)C1 [Example 54, 3-{[(4′-Chlorobiphenyl-4-yl)oxy]methyl}-1-[(4,4-difluorocyclohexyl)carbonyl]azetidine-3-carboxylic acid]
10.5	O=C(c1ccc(F)cc1)N1CC(COc2cnc(-c3ccc(Cl)cc3)nc2)(C(=O)O)C1 [Example 11]
7.5	O=C(c1ccc(F)cc1)N1CC(COc2ccc(-c3ccc(F)cc3)cc2)(C(=O)O)C1 [Example 16]
7	Cc1ccc(-c2ccc(OCC3(C(=O)O)CN(C(=O)c4ccc(F)cc4)C3)cc2)cc1 [Example 15]
6.6	O=C(c1ccc(F)cc1)N1CC(COc2ccc(-c3ncc(Cl)cn3)cc2)(C(=O)O)C1 [Example 9]
6	COc1ccc2cc(OCC3(C(=O)O)CN(C(=O)c4ccc(Cl)cc4)C3)ccc2c1 [Example 13]
5.6	O=C(c1ccc(F)cc1)N1CC(COc2ccc(-c3ccc(F)cc3F)cc2)(C(=O)O)C1 [Example 44]
5.2	O=C(c1ccc(F)cc1)N1CC(COc2ccc(-c3cccc(Cl)c3)cc2)(C(=O)O)C1 [Example 43]
5	O=C(c1ccccc1)N1CC(COc2cnc(-c3ccc(Cl)cc3)cn2)(C(=O)O)C1 [Example 42]
3.3	O=C(c1ccc(F)cc1)N1CC(COc2ccc(-c3ccc(Cl)cn3)cc2)(C(=O)O)C1 [Example 12]
3.1	O=C(c1ccc(F)cc1)N1CC(COc2ccc(-c3ccc(Cl)cc3)cc2)(C(=O)O)C1 [Example 10]
2.3	N#Cc1ccc(-c2ccc(OCC3(C(=O)O)CN(C(=O)c4ccc(F)cc4)C3)cc2)cc1 [Example 6]
2.3	O=C(c1ccc(F)cc1)N1CC(COc2ccc(-c3cc4ccccc4nn3)cc2)(C(=O)O)C1 [Example 8]
1.9	O=C(c1ccc(Cl)cc1)N1CC(COc2ccc(-c3ccc(Cl)cn3)cc2)(C(=O)O)C1 [Example 5]
1.6	O=C(c1ccc(Cl)cc1)N1CC(COc2ccc(-c3ccc(Cl)cc3)cc2)(C(=O)O)C1 [Example 4]
1.4	O=C(c1ccc(F)cc1)N1CC(COc2ccc3nc(-c4ccccn4)sc3c2)(C(=O)O)C1 [Example 7]
1.1	O=C(c1ccc(Cl)cc1)N1CC(COc2ccc(-c3ccc(F)cc3)cc2)(C(=O)O)C1 [Example 2]
0.9	N#Cc1ccc(-c2ccc(OCC3(C(=O)O)CN(C(=O)c4ccc(Cl)cc4)C3)cc2)cc1 [Example 1, 1-(4-Chlorobenzoyl)-3-{[(4′-cyanobiphenyl-4-yl)oxy]methyl}azetidine-3-carboxylic acid]
0.7	O=C(c1ccc(F)cc1)N1CC(COc2ccc(-c3ccc4ccccc4n3)cc2)(C(=O)O)C1 [Example 3]
